Data on 13 compounds can be found in article PMC7730235, “Discovery of a Novel Class of Covalent Dual Inhibitors Targeting the Protein Kinases BMX and BTK” (International Journal of Molecular Sciences, 2020).

Assay [1] deals with T1, kinase domain of BMX (Homo sapiens, UniProt P51813).
T1 construct: The kinase domains of JAK3 and BMX at 2 μM
In words: Thermal shift (ΔTm) assay. Type of assay: binding. The note with it: 2 μM kinase domain, 10 μM inhibitor; mean ± SD of at least three measurements. Here is the method: (§1) The kinase domains of JAK3 and BMX at 2 μM were mixed with the inhibitors at 10 μM, and subsequently SyPRO orange dye (Invitrogen Carlsbad, CA, USA) was added. The thermal shift assay and data evaluation were performed as described previously using a Real-Time PCR Mx3005p machine (Stratagene, La Jolla, CA, USA).

Assay [2] has as its target T2, kinase domain of JAK3 (Homo sapiens, UniProt P52333).
T2 construct: The kinase domains of JAK3 and BMX at 2 μM; made in house
In words: Thermal shift (ΔTm) assay. To be noted: 2 μM kinase domain, 10 μM inhibitor; mean ± SD of at least three measurements. The format is binding. Here is the method:
as §1

Assay [3] deals with T3, JAK3 (Homo sapiens, UniProt P52333).
T3 construct: purchased Reaction Biology Corporation
T3 sequence (P52333 1-1124): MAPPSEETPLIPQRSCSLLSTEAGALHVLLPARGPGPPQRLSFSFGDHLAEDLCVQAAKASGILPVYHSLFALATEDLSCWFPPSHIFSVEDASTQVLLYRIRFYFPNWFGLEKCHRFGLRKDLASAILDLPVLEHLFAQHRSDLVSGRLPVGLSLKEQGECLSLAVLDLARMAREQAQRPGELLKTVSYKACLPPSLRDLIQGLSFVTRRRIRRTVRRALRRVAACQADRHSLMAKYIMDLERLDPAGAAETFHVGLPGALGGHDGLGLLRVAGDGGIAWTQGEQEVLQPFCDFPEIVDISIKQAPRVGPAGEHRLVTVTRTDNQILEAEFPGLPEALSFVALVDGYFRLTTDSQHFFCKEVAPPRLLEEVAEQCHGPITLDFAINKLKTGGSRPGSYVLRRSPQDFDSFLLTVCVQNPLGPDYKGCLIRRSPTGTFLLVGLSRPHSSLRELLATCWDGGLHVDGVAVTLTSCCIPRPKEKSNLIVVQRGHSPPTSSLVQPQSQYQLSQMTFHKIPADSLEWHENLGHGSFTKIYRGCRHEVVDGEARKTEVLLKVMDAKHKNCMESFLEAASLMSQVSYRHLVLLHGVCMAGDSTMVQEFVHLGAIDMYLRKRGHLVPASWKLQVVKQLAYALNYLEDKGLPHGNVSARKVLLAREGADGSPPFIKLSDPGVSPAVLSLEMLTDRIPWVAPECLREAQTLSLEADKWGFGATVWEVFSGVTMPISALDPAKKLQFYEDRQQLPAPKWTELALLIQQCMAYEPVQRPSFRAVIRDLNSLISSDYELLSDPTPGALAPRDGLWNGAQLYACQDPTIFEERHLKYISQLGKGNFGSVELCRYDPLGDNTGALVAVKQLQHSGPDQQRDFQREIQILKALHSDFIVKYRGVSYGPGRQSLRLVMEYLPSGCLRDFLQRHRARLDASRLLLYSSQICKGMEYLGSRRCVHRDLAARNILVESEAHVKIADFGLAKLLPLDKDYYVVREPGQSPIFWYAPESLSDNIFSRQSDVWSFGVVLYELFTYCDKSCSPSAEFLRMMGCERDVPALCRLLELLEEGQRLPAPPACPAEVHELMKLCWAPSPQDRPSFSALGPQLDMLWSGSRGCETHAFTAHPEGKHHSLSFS
In words: Radiometric kinase assay (Reaction Biology HotSpot). Type of assay: biochemical. The note with it: for JAK3 IC50 of nonreactive analogs (not shown): in words, data not shown. Here is the method:
(§2) If not mentioned differently, in vitro profiling of compounds was performed at Reaction Biology Corporation using the HotSpot™ assay platform.

Assay [4] addresses T4, Full length BMX (C-terminal NanoLuc fusion) (Homo sapiens, UniProt P51813).
T4 construct: Full length BMX and BTK was cloned into pFC32K; expressed in transfected cells; host or cells: HEK293T
T4 sequence (P51813 1-675): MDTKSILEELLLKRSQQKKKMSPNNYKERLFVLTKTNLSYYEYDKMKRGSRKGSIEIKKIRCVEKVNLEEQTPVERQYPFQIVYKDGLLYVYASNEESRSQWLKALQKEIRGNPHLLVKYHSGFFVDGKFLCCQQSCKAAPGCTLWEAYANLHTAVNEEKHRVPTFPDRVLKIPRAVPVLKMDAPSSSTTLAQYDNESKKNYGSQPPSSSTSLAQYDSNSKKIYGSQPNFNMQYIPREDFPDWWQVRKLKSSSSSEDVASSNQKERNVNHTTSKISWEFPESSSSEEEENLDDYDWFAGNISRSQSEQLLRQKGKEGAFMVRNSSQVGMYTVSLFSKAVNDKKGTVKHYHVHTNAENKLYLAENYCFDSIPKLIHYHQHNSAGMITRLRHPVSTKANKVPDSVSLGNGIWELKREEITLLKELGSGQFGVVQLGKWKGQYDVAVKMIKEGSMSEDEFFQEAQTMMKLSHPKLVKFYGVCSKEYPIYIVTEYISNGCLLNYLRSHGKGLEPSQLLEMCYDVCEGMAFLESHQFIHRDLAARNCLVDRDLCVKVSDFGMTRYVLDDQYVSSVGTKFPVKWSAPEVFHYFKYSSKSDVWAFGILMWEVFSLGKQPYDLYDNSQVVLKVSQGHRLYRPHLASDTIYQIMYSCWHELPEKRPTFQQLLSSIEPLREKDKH
In words: Cellular NanoBRET target engagement assay in HEK293T cells. Type of assay: cell-based. To be noted: 0.5 µM Tracer K4, 2 h incubation. Here is the method: (§3) Full length BMX and BTK was cloned into pFC32K (Promega, Madison, WI, USA) for expression of a C-terminal NanoLuc fusion. The plasmids were transfected into HEK293T cells cultured in DMEM (Gibco, Waltham, MA, USA) supplemented with 10% fetal bovine serum (Gibco, Waltham, MA, USA) and Penicillin/Streptamycin (Gibco, Waltham, MA, USA). NanoBRET assays were performed using the protocol published previously. Briefly, after transfection and 20 h incubation cells were harvested and subsequently resuspended in OptiMEM (Gibco, Waltham, MA, USA). Cells were aliquoted onto […] (Greiner, Kremsmünster, Austria), and inhibitors as well as 0.5 µM Tracer K4 (Promega) for BMX or 0.5 µM Tracer K5 (Promega, Madison, WI, USA) for BTK were added using an ECHO acoustic dispenser. The plates were incubated at 37 °C with 5% CO2 for 2 h prior to the addition of both NanoBRET NanoGlo substrate (Promega, Madison, WI, USA) and extracellular NanoLuc inhibitor. BRET luminescence (450 nm for donor emission and 610 nm for BRET signal) was measured using PHERAstar FSX plate reader (BMG Labtech, Ortenberg, Germany). Milli-BRET units (mBU) were calculated as a ratio between BRET signal and the overall measured luminescence. A dose–response fitting was applied and IC50 values were calculated using the Prism software. […] Experiments were performed as tripicates and repeated at least three times.
(Bioluminescence resonance energy transfer reports proximity on the nanometre scale.)

Assay [5] deals with T5, Full length BTK (C-terminal NanoLuc fusion) (Homo sapiens, UniProt Q06187).
T5 construct: Full length BMX and BTK was cloned into pFC32K; expressed in transfected cells; host or cells: HEK293T
T5 sequence (Q06187 whole entry, the tested form may be a part): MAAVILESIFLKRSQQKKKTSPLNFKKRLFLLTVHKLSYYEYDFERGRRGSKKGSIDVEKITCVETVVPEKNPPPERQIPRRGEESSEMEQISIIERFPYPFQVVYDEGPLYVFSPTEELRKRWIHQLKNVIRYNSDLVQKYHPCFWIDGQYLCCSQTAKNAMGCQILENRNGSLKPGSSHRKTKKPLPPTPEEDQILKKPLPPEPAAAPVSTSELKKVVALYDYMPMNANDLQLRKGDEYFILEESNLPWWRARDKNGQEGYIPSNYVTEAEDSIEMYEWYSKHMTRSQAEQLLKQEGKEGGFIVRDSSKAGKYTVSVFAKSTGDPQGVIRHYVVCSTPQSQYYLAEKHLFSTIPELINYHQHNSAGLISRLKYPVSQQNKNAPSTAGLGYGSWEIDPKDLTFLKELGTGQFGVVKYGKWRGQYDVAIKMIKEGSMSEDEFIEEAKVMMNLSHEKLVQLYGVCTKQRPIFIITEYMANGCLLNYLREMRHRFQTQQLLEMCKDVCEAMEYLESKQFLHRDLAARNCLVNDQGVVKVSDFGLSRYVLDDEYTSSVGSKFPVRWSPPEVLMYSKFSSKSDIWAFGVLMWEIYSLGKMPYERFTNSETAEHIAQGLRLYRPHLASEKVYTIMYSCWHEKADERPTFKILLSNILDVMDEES
Described as above. The note with it: 0.5 µM Tracer K5, 2 h incubation. The format is cell-based. On the procedure:
as §3

Assay [6] has as its target T1, kinase domain of BMX. In words: Mass spectrometric investigation of covalent binding to BMX (ESI-TOF). To be noted: 4 °C; for native (unmodified) BMX fraction, 30 min / native (unmodified) BMX fraction, 60 min / native (unmodified) BMX fraction, 120 min / native (unmodified) BMX fraction, 240 min: 1.5-fold molar excess of inhibitor; for covalent labeling of BMX (in words): 1.5-fold molar excess, complete labeling refers to 30 min. Here is the method: The kinase domain of BMX was diluted to 0.05 mM with buffer containing 20 mM Tris pH 8.0, 200 mM NaCl, 0.5 mM TCEP (pH 7.0) and was subsequently mixed with 0.075 mM inhibitors (ratio of protein to inhibitor of 1:1.5). The mixture was incubated at 4°C. The samples were taken at different time points, the reaction stopped by diluting the sample with a 200-fold excess of 1% formic acid. The denatured protein and the adducts were assessed using electrospray time-of-flight (ESI-TOF) mass spectrometry.

The target in assay [7] is T6, BMX (Homo sapiens, UniProt P51813).
T6 construct: purchased Reaction Biology Corporation
T6 sequence (P51813 1-675): T4 sequence (P51813 1-675)
In words: Radiometric kinase assay (Reaction Biology HotSpot). Type of assay: biochemical. To be noted: radiometric HotSpot, five-dose singlicate, [ATP] = 10 μM. On the procedure: as §2

Broadly, the ΔTm is the shift of the melting midpoint relative to a reference. In the case of `C=CC(=O)Nc1cccc(-c2c[nH]c3ncc(C(=O)NCC4CCCCC4)cc23)c1` [Compound 11f, 3-(3-acrylamidophenyl)-N-(cyclohexylmethyl)-1H-pyrrolo[2,3-b]pyridine-5-carboxamide], the ΔTm at 10 µM in assay [1] amounted to 3.68 ± 0.13 °C; in assay [2] it was 5.54 ± 0.82 °C.

As a reminder, the IC50 is the concentration that gives 50% inhibition. Low readings indicate greater potency, high ones weaker potency. As for `CCC(=O)Nc1cccc(-c2c[nH]c3ncc(C(N)=O)cc23)c1` [Compound 10b, 3-(3-propionamidophenyl)-1H-pyrrolo[2,3-b]pyridine-5-carboxamide], the “JAK3 IC50 of nonreactive analogs (not shown)” value in assay [3] is recorded as “micromolar range”. For the same compound, in assay [4], the IC50 was > 10 µM. Further, the IC50 in assay [5] is > 10 µM. For the same compound, in assay [6], the “native (unmodified) BMX fraction, 30 min” value was 100%; the “native (unmodified) BMX fraction, 60 min” value came out at 100%; the “native (unmodified) BMX fraction, 120 min” value was 100%; the “native (unmodified) BMX fraction, 240 min” value is recorded as 100%. For the same compound, the “covalent labeling of BMX (in words)” value in assay [6] was “no modification was detectable”.

Regarding `C=CC(=O)Nc1cccc(-c2c[nH]c3ncc(NC(=O)Cc4ccccc4)cc23)c1` [Compound 12h, N-(3-(5-(2-phenylacetamido)-1H-pyrrolo[2,3-b]pyridin-3-yl)phenyl)acrylamide], the ΔTm at 10 µM in assay [1] stood at 11.9 °C; in assay [2] it was 12.1 °C.

On to `C=CC(=O)Nc1cccc(-c2c[nH]c3ncc(C(=O)NC)cc23)c1` [Compound 11c, 3-(3-acrylamidophenyl)-N-methyl-1H-pyrrolo[2,3-b]pyridine-5-carboxamide], for which the ΔTm at 10 µM was determined as 7.84 ± 0.04 °C in assay [1] and 10.3 ± 0.37 °C in assay [2].

As to `C=CC(=O)Nc1cccc(-c2c[nH]c3ncc(NC(=O)c4ccco4)cc23)c1` [Compound 12d, N-(3-(3-acrylamidophenyl)-1H-pyrrolo[2,3-b]pyridin-5-yl)furan-2-carboxamide], the IC50 in assay [7] amounted to 0.004 µM; in assay [3] (radiometric HotSpot, five-dose singlicate, [ATP] = 10 μM) it was 1.08 µM. Also, the results for the ΔTm at 10 µM in assay [1] and in assay [2] were 10.75 ± 0.09 °C and 9.93 ± 0.12 °C, respectively.

With `C=CC(=O)Nc1cccc(-c2c[nH]c3ncc(NC(=O)c4ccccc4)cc23)c1` [Compound 12e, N-(3-(3-acrylamidophenyl)-1H-pyrrolo[2,3-b]pyridin-5-yl)benzamide], the shift in melting temperature (ΔTm) at 10 µM in assay [1] was found to be 11.37 ± 0.03 °C; in assay [2], 10.9 ± 0.95 °C.

For the compound `C=CC(=O)Nc1cccc(-c2c[nH]c3ncc(C(=O)NCC4CC4)cc23)c1` [Compound 11e, 3-(3-acrylamidophenyl)-N-(cyclopropylmethyl)-1H-pyrrolo[2,3-b]pyridine-5-carboxamide], the ΔTm at 10 µM in assay [1] was determined as 6.94 ± 0.07 °C; in assay [2] it was 9.64 ± 0.28 °C.

`CCC(=O)Nc1cccc(-c2c[nH]c3ncccc23)c1` [Compound 9b, N-(3-(1H-pyrrolo[2,3-b]pyridin-3-yl)phenyl)propionamide]: the “JAK3 IC50 of nonreactive analogs (not shown)” value in assay [3] is reported as “micromolar range”. In addition, in assay [4], the IC50 was > 10 µM. Besides, in assay [5], the IC50 amounted to 9.22 ± 3.7 µM. In addition, in assay [6], the “native (unmodified) BMX fraction, 30 min” value is reported as 100%; the “native (unmodified) BMX fraction, 60 min” value is reported as 100%; the “native (unmodified) BMX fraction, 120 min” value came to 100%; the “native (unmodified) BMX fraction, 240 min” value was 100%. Moreover, the “covalent labeling of BMX (in words)” value in assay [6] is reported as “no modification was detectable”.

For the compound `c1ccc(-c2c[nH]c3ncccc23)cc1` [Compound 9c, 3-phenyl-1H-pyrrolo[2,3-b]pyridine], the “JAK3 IC50 of nonreactive analogs (not shown)” value in assay [3] was “micromolar range”.

`C=CC(=O)Nc1cccc(-c2c[nH]c3ncc(C(=O)NCc4ccccc4)cc23)c1` [Compound 11g, 3-(3-acrylamidophenyl)-N-benzyl-1H-pyrrolo[2,3-b]pyridine-5-carboxamide]: the thermal shift (ΔTm) at 10 µM stood at 6.84 ± 0.23 °C in assay [1] and 8.29 ± 1.26 °C in assay [2].

Consider `C=CC(=O)Nc1cccc(-c2c[nH]c3ncc(C(=O)NCC)cc23)c1` [Compound 11d, 3-(3-acrylamidophenyl)-N-ethyl-1H-pyrrolo[2,3-b]pyridine-5-carboxamide], for which the values for the shift in melting temperature (ΔTm) at 10 µM in assay [1] and in assay [2] were 7.35 ± 0.19 °C and 10.3 ± 0.26 °C, respectively.

`NC(=O)c1cnc2[nH]cc(-c3ccccc3)c2c1` [Compound 10c, 3-phenyl-1H-pyrrolo[2,3-b]pyridine-5-carboxamide]: the “JAK3 IC50 of nonreactive analogs (not shown)” value in assay [3] is recorded as “micromolar range”.

As to `C=CC(=O)Nc1cccc(-c2c[nH]c3ncc(NC(C)=O)cc23)c1` [Compound 12f, N-(3-(5-acetamido-1H-pyrrolo[2,3-b]pyridin-3-yl)phenyl)acrylamide], the shift in melting temperature (ΔTm) at 10 µM in assay [1] was 10.6 ± 0.12 °C; in assay [2], 13.4 ± 0.43 °C.
